In patent publication US20230210999A1, “TARGETED PROTEASE DEGRADATION (TED) PLATFORM” (EUBULUS BIOTHERAPEUTICS INC., priority 2020, published 2023):
Where two headings read alike, the source gives them in different places.

Key:
Assay type in all cases: cell-based, human
Daudi cells = assay: Cell proliferation experiment, Daudi; conditions: Homo sapiens, Daudi, Daudi cells; read-out: Inhibitory activity IC50 on Daudi
Description: (§1) Reagents: RPMI-1640 medium, McCoy's 5A medium, IMDM medium, MEM medium, L-15 medium, fetal bovine serum. Penicillin-Streptomycin double antibody, trypsin, etc., 2-mercaptoethanol, NEAA, pyruvate, etc.
(§2) The cells were cultured in conventional ways, and the cells should be passed at least 2 generations before plating. Cells at the logarithmic growth phase were collected, prepared into single cell suspensions and counted. The concentration of cells was adjusted to the desired concentration, and cells were inoculated into a 96-well cell culture plate at 100 μl per well. 100 μL of complete medium of the test compound were added to each well, set up 2 duplicate wells for each concentration, and diluted with a 5-fold gradient, and continued to culture for 72 h. All cells were subjected to IC50 test for corresponding samples. The experimental results are shown in Test Example 4.
(§3) The fluorescence intensity of each well was detected using the Alarm blue method, and IC50 was calculated.
(§4) IC50 was calculated according to the following formula:
(§5) Y=Max+(Min−Max)/[1+(X/IC50)×Slope]
(§6) wherein Min, Max and Slope represent the minimum, maximum and slope respectively.

MV4;11 cells = assay: Cell proliferation experiment (Alamar blue, 72 h), MV4;11
Description: as §1, §2, §3, §4, §5, §6

NCIH82 cells = assay: Cell proliferation experiment, NCI-H82; conditions: read-out: Inhibitory activity IC50 on NCI-H82
Description: as §1, §2, §3, §4, §5, §6

[1] = Homo sapiens, MV4-11, MV4;11 cells, read-out: Inhibitory activity IC50 on MV4;11
[2] = Homo sapiens, NCI-H82, NCI-H82 cells

| Structure (SMILES) | IC50 (Daudi cells) [µM] | IC50 (MV4;11 cells; [1]) [µM] | IC50 (NCIH82 cells; [2]) [µM] | IC50 (MV4;11 cells; MV4;11 cells, read-out: Inhibitory activity IC50 on MV4;11) [µM] | IC50 (NCIH82 cells; NCI-H82 cells) [µM] | IC50 (MV4;11 cells; Homo sapiens, MV4-11, 72 h, MV4;11 cells, 72 h, read-out: Inhibitory activity IC50 of tested compounds on MV4;11 cells) [µM] |
| --- | --- | --- | --- | --- | --- | --- |
| O=C1CCC(N2Cc3c(C#CCNCCOCCOCCOCCNC(=O)[C@H]4CC[C@H](Oc5cccc(Cl)c5F)CC4Cc4cccc(Nc5nccs5)n4)cccc3C2=O)C(=O)N1 (some centres unmarked) [Compound 860] | – | – | – | – | – | > 1 |
| O=C1CCC(N2Cc3cc(NC(=O)CCNCCOCCOCCn4cc([C@]5(Cc6cccc(Nc7nccs7)n6)CC[C@@H](Oc6cccc(Cl)c6F)CC5)nn4)ccc3C2=O)C(=O)N1 (some centres unmarked) [UB-180994] | > 1 | 0.1 to 1 | > 1 | – | – | – |
| CCNC(=O)C#Cc1ccc2c(c1)NC(=O)/C2=C(\Nc1ccc(CNCCOCCOCCC(=O)Nc2cccc3c2CN(C2CCC(=O)NC2=O)C3=O)cc1)c1ccccc1 (centres unmarked) [UB-180964] | > 1 | 0.1 to 1 | > 1 | – | – | – |
| O=C1CCC(N2Cc3cc(NC(=O)CNCCOCCOCCOCCNC(=O)c4ccc(Nc5ncc6c(n5)-c5ccc(Cl)cc5C(c5c(F)cccc5F)=NC6)cc4)ccc3C2=O)C(=O)N1 (centres unmarked) [UB-180954] | > 1 | 0.1 to 1 | > 1 | – | – | – |
| O=C1CCC(N2Cc3cc(NC(=O)CCCCCCCCCNCCn4cc([C@]5(Cc6cccc(Nc7nccs7)n6)CC[C@@H](Oc6cccc(Cl)c6F)CC5)nn4)ccc3C2=O)C(=O)N1 (some centres unmarked) [UB-180995] | > 1 | > 1 | > 1 | – | – | – |
| O=C1CCC(N2Cc3c(C#CCCOCCN[C@H]4CC[C@@H](n5cc(-c6ccc(Nc7ncc8c(n7)-c7ccc(Cl)cc7C(c7c(F)cccc7F)=NC8)cc6)nn5)CC4)cccc3C2=O)C(=O)N1 (some centres unmarked) [UB-180966] | > 1 | > 1 | > 1 | – | – | – |
| CCNC(=O)C=C(Cl)c1ccc2c(c1)NC(=O)/C2=C(\Nc1ccc(CNCCOCCOCCOCCOCCC(=O)Nc2cccc3c2CN(C2CCC(=O)NC2=O)C3=O)cc1)c1ccccc1 (centres unmarked) [UB-180952] | > 1 | > 1 | > 1 | – | – | – |
| NC(=O)c1ccccc1Nc1nc(Nc2ccc(C3CCN(C(=O)NCCCNCCCC#Cc4ccc5c(c4)CN(C4CCC(=O)NC4=O)C5=O)CC3)cc2)ncc1Cl (centres unmarked) [UB-181207] | > 1 | – | > 1 | – | – | – |
| O=C1CCC(N2Cc3cc(NC(=O)CCOCCOCCOCCN[C@H]4CC[C@@H](NC(=O)c5ccc(Nc6ncc7c(n6)-c6ccc(Cl)cc6C(c6c(F)cccc6F)=NC7)cc5)CC4)ccc3C2=O)C(=O)N1 (some centres unmarked) [UB-181006] | > 1 | > 1 | > 1 | – | – | – |
| O=C1CCC(N2Cc3c(C#CCCOCCN[C@H]4CC[C@H](n5cc(-c6ccc(Nc7ncc8c(n7)-c7ccc(Cl)cc7C(c7c(F)cccc7F)=NC8)cc6)nn5)CC4)cccc3C2=O)C(=O)N1 (some centres unmarked) [UB-180975] | > 1 | > 1 | > 1 | – | – | – |
| O=C1CCC(N2Cc3cc(NC(=O)CCNCCCOCCCCn4cc(-c5ccc(Nc6ncc7c(n6)-c6ccc(Cl)cc6C(c6c(F)cccc6F)=NC7)cc5)nn4)ccc3C2=O)C(=O)N1 (centres unmarked) [UB-181000] | > 1 | > 1 | > 1 | – | – | – |
| O=C1CCC(N2Cc3c(NC(=O)CNCCOCCN4CCC(n5cc(-c6ccc(Nc7ncc8c(n7)-c7ccc(Cl)cc7C(c7c(F)cccc7F)=NC8)cc6)nn5)CC4)cccc3C2=O)C(=O)N1 (centres unmarked) [UB-180945] | > 1 | 0.1 to 1 | > 1 | – | – | – |
| CCNC(=O)C#Cc1ccc2c(c1)NC(=O)/C2=C(\Nc1ccc(CNCCOCCOCCOCCC(=O)Nc2cccc3c2CN(C2CCC(=O)NC2=O)C3=O)cc1)c1ccccc1 (centres unmarked) [UB-180971] | > 1 | 0.1 to 1 | > 1 | – | – | – |
| O=C1CCC(N2Cc3cc(NC(=O)CNCCOCCOCCOCCNC(=O)[C@]4(Cc5cccc(Nc6nccs6)n5)CC[C@@H](Oc5cccc(Cl)c5F)CC4)ccc3C2=O)C(=O)N1 (some centres unmarked) [UB-180953] | > 1 | 0.1 to 1 | > 1 | – | – | – |
| O=C1CCC(N2Cc3cc(NC(=O)CNCCCOCCOCCn4cc(-c5ccc(Nc6ncc7c(n6)-c6ccc(Cl)cc6C(c6c(F)cccc6F)=NC7)cc5)nn4)ccc3C2=O)C(=O)N1 (centres unmarked) [UB-181020] | > 1 | 0.1 to 1 | > 1 | – | – | – |
| O=C1CCC(N2Cc3cc(NC(=O)CCCCCCCNCCCn4cc(-c5ccc(Nc6ncc7c(n6)-c6ccc(Cl)cc6C(c6c(F)cccc6F)=NC7)cc5)nn4)ccc3C2=O)C(=O)N1 (centres unmarked) [UB-180982] | > 1 | 0.1 to 1 | > 1 | – | – | – |
| O=C1CCC(N2Cc3cc(NC(=O)CCNCCCOCCCCn4cc([C@]5(Cc6cccc(Nc7nccs7)n6)CC[C@@H](Oc6cccc(Cl)c6F)CC5)nn4)ccc3C2=O)C(=O)N1 (some centres unmarked) [UB-181001] | > 1 | > 1 | > 1 | – | – | – |

More lines, now with the values ahead:

| IC50 (Daudi cells) [µM] | IC50 (MV4;11 cells; [1]) [µM] | IC50 (NCIH82 cells; [2]) [µM] | IC50 (MV4;11 cells; MV4;11 cells, read-out: Inhibitory activity IC50 on MV4;11) [µM] | IC50 (NCIH82 cells; NCI-H82 cells) [µM] | IC50 (MV4;11 cells; Homo sapiens, MV4-11, 72 h, MV4;11 cells, 72 h, read-out: Inhibitory activity IC50 of tested compounds on MV4;11 cells) [µM] | Structure (SMILES) |
| --- | --- | --- | --- | --- | --- | --- |
| > 1 | 0.1 to 1 | > 1 | – | – | – | O=C1CCC(N2Cc3cc(NC(=O)CNCCCCOCCCCNC(=O)[C@]4(Cc5cccc(Nc6nccs6)n5)CC[C@@H](Oc5cccc(Cl)c5F)CC4)ccc3C2=O)C(=O)N1 (some centres unmarked) [UB-181019] |
| > 1 | – | – | > 1 | > 1 | – | O=C1CCC(N2Cc3cc(NC(=O)CCOCCOCC(O)COCCn4cc(-c5ccc(Nc6ncc7c(n6)-c6ccc(Cl)cc6C(c6c(F)cccc6F)=NC7)cc5)nn4)ccc3C2=O)C(=O)N1 (centres unmarked) [UB-181005] |
| > 1 | 0.1 to 1 | > 1 | – | – | – | CCNC(=O)C#Cc1ccc2c(c1)NC(=O)/C2=C(\Nc1ccc(CNCCOCCOCCOCCOCC(=O)Nc2cccc3c2CN(C2CCC(=O)NC2=O)C3=O)cc1)c1ccccc1 (centres unmarked) [UB-180962] |
| > 1 | 0.1 to 1 | > 1 | – | – | – | O=C1CCC(N2Cc3c(C#CCCNCCOCCOCCNC(=O)c4ccc(Nc5ncc6c(n5)-c5ccc(Cl)cc5C(c5c(F)cccc5F)=NC6)cc4)cccc3C2=O)C(=O)N1 (centres unmarked) [UB-181028] |
| 0.1 to 1 | 0.01 to 0.1 | 0.1 to 1 | – | – | – | CCNC(=O)C#Cc1ccc2c(c1)NC(=O)/C2=C(\Nc1ccc(CNCCOCCOCCOCCC(=O)Nc2ccc3c(c2)CN(C2CCC(=O)NC2=O)C3=O)cc1)c1ccccc1 (centres unmarked) [UB-180972] |
| 0.1 to 1 | 0.1 to 1 | > 1 | – | – | – | O=C1CCC(N2Cc3cc(NC(=O)CNCCCOCCCCCn4cc(-c5ccc(Nc6ncc7c(n6)-c6ccc(Cl)cc6C(c6c(F)cccc6F)=NC7)cc5)nn4)ccc3C2=O)C(=O)N1 (centres unmarked) [UB-181008] |
| 0.01 to 0.1 | – | 0.1 to 1 | – | – | – | NC(=O)c1ccccc1Nc1nc(Nc2ccc(N3CCN(C(=O)NCCCCNCCC#Cc4ccc5c(c4)CN(C4CCC(=O)NC4=O)C5=O)CC3)cc2)ncc1Cl (centres unmarked) [UB-181208] |
| > 1 | 0.1 to 1 | > 1 | – | – | – | O=C1CCC(N2Cc3cc(NC(=O)CNCCCOCCCCCn4cc([C@]5(Cc6cccc(Nc7nccs7)n6)CC[C@@H](Oc6cccc(Cl)c6F)CC5)nn4)ccc3C2=O)C(=O)N1 (some centres unmarked) [UB-181009] |
| > 1 | 0.1 to 1 | > 1 | – | – | – | O=C1CCC(N2Cc3cc(C#CCCNCCOCCOCCOCCn4cc([C@]5(Cc6cccc(Nc7nccs7)n6)CC[C@@H](Oc6cccc(Cl)c6F)CC5)nn4)ccc3C2=O)C(=O)N1 (some centres unmarked) [UB-180973] |
| < 0.01 | < 0.01 | – | – | – | – | CC[C@@H]1C(=O)N(C)c2cnc(Nc3ccc(C(=O)N[C@H]4CC[C@@H](NCCCCCC#Cc5ccc6c(c5)CN(C5CCC(=O)NC5=O)C6=O)CC4)cc3OC)nc2N1C1CCCC1 (some centres unmarked) [UB-180985] |
| > 1 | 0.1 to 1 | > 1 | – | – | – | O=C1CCC(N2Cc3c(NC(=O)CNCCCCOCCCCNC(=O)[C@]4(Cc5cccc(Nc6nccs6)n5)CC[C@@H](Oc5cccc(Cl)c5F)CC4)cccc3C2=O)C(=O)N1 (some centres unmarked) [UB-181013] |
| 0.1 to 1 | 0.01 to 0.1 | > 1 | – | – | – | O=C1CCC(N2Cc3cc(NC(=O)CCOCCOCCOCCNC(=O)c4ccc(Nc5ncc6c(n5)-c5ccc(Cl)cc5C(c5c(F)cccc5F)=NC6)cc4)ccc3C2=O)C(=O)N1 (centres unmarked) [UB-180947] |
| 0.1 to 1 | 0.01 to 0.1 | – | – | – | – | CC[C@@H]1C(=O)N(C)c2cnc(Nc3ccc(-c4cn(CCOCCOC[C@@H](N)CC#Cc5cccc6c5CN(C5CCC(=O)NC5=O)C6=O)nn4)cc3OC)nc2N1C1CCCC1 (some centres unmarked) [UB-180969] |
| 0.1 to 1 | 0.1 to 1 | > 1 | – | – | – | NC(COCCCCCCCC(=O)Nc1ccc2c(c1)CN(C1CCC(=O)NC1=O)C2=O)Cn1cc(-c2ccc(Nc3ncc4c(n3)-c3ccc(Cl)cc3C(c3c(F)cccc3F)=NC4)cc2)nn1 (centres unmarked) [UB-181007] |
| 0.01 to 0.1 | < 0.01 | – | – | – | – | CC[C@@H]1C(=O)N(C)c2cnc(Nc3ccc(-c4cn([C@H]5CC[C@@H](NCCCCCC#Cc6ccc7c(c6)CN(C6CCC(=O)NC6=O)C7=O)CC5)nn4)cc3OC)nc2N1C1CCCC1 (some centres unmarked) [UB-180984] |
| 0.1 to 1 | < 0.01 | – | – | – | – | CC[C@@H]1C(=O)N(C)c2cnc(Nc3ccc(-c4nnc(C5CCC(NCCOCCC#Cc6cccc7c6CN(C6CCC(=O)NC6=O)C7=O)CC5)o4)cc3OC)nc2N1C1CCCC1 (some centres unmarked) [UB-180968] |
| 0.01 to 0.1 | 0.01 to 0.1 | – | – | – | – | CC[C@@H]1C(=O)N(C)c2cnc(Nc3ccc(-c4cn(CCCOCCCNCCC#Cc5cccc6c5CN(C5CCC(=O)NC5=O)C6=O)nn4)cc3OC)nc2N1C1CCCC1 (some centres unmarked) [UB-180938] |
| 0.1 to 1 | – | 0.1 to 1 | – | – | – | NC(=O)c1ccccc1Nc1nc(Nc2ccc(C3CCN(C(=O)NCCCCNCCC#Cc4ccc5c(c4)CN(C4CCC(=O)NC4=O)C5=O)CC3)cc2)ncc1Cl (centres unmarked) [UB-181206] |
